Reference: patent publication US9914760B2, “Methods of identifying, isolating and using odorant and aroma receptors” (Firmenich SA, priority 2013, dated 2018)

Legend:
Test in all cases: cell-based calcium-flux assay, HEK293T with Gα15
OR4C15 = biological target: T1, OR4C15 (Homo sapiens, UniProt Q8NGM1); conditions: dose-response curves FIG. 6D-J
T1 construct: expressed in transfected cells
Description: (§1) The activity of candidate human indole and skatole malodors receptors OR52N2 (SEQ ID NO: 11 and SEQ ID NO: 12), OR11G2 (SEQ ID NO: 13 and SEQ ID NO: 14, OR5AC2 (SEQ ID NO: 75 and SEQ ID NO: 76), OR4C15 (SEQ ID NO: 79 and SEQ ID NO: 80), OR8S1 (SEQ ID NO: 83 and SEQ ID NO: 84), OR11H6 (SEQ ID NO: 15 and SEQ ID NO: 16) and OR11H4 (SEQ ID NO: 49 and SEQ ID NO: 50) and candidate mouse indole and skatole malodors receptors Olfr665 (SEQ ID NO: 9 and SEQ ID NO 10) and Olfr740 (SEQ ID NO: 1 and SEQ ID NO 2) were confirmed in cell-based calcium-flux assays (FIGS. 6A to 6J). Cells stably co-expressing Rho-tagged human OR52N2 (FIG. 6A, B) or OR11G2 (FIG. 6C) and Gα15 (SEQ ID NO: 25) were exposed to increasing concentrations of skatole or indole. FIG. 6B is a repeat experiment showing similar activity of OR52N2 with indole and skatole. Odorant-induced OR52N2 or OR11G2 activity was detected by measuring the maximum Calcium 5 dye (Molecular Devices) fluorescence change following odorant exposure. Activity is defined as the baseline corrected Relative Fluorescent Units (RFU) ratios normalized to the highest RFU in the experiment in FIG. 6A. […] A cell line lacking a receptor, for example hOR52N2, was used as a control for non-specific activity at high concentrations (‘Indole control’ and ‘Skatole control’). The human receptor OR52N2 (SEQ ID NO: 11 and SEQ ID NO: 12) was identified because of its sequence similarity to mouse Olfr665 (SEQ ID NO: 10), an indole/skatole receptor isolated from olfactory neurons responding to both indole and skatole. The human receptor OR11G2 (SEQ ID NO: 13 and SEQ ID NO: 14) was identified because of its sequence similarity to mouse Olfr740 (SEQ ID NO: 2), an indole/skatole receptor isolated from olfactory neurons responding to both indole and skatole. The receptors were modified with the Rho sequence and stably expressed in HEK 293T cells. Further examples show indole and skatole dose-response curves for human receptors OR5AC2, OR4C15, OR8S1, OR11H6, OR11H4 and mouse receptors Olfr665 and Olfr740 (FIG. 6D-J). The human receptor OR5AC2 (SEQ ID NO: 75 and SEQ ID NO: 76) was identified because of its sequence similarity to mouse Olfr207 (SEQ ID NO: 78), a receptor isolated from olfactory neurons responding to both indole and skatole. The human receptor OR4C15 (SEQ ID NO: 79 and SEQ ID NO: 80) was identified because of its sequence similarity to mouse Olfr211 (SEQ ID NO: 82), a receptor isolated from olfactory neurons responding to both indole and skatole. The human receptor OR8S1 (SEQ ID NO: 83 and SEQ ID NO: 84) was identified because of its sequence similarity to mouse Olfr257 (SEQ ID NO: 86), a receptor isolated from olfactory neurons responding to both indole and skatole. The human receptor OR11H6 (SEQ ID NO: 15 and SEQ ID NO: 16) was identified because of its sequence similarity to mouse Olfr745 (SEQ ID NO: 8), a receptor isolated from olfactory neurons responding to both indole and skatole. The human receptor OR11H4 (SEQ ID NO: 49 and SEQ ID NO: 50) was identified because of its sequence similarity to mouse Olfr746 (SEQ ID NO: 38), a receptor isolated from olfactory neurons responding to both indole and skatole. The mouse receptor Olfr665 (SEQ ID NO: 9 and SEQ ID NO: 10) was identified directly from NGS data from isolated olfactory neurons responding to both indole and skatole. The mouse receptor Olfr740 (SEQ ID NO: 1 and SEQ ID NO: 2) was identified directly from NGS data from isolated olfactory neurons responding to both indole and skatole. Co-expression of the human G alpha subunit Gα15 activates the Gq transduction pathway that leads to an internal Ca2+ increase upon binding to the appropriate ligand.

OR11H6 = biological target: T2, OR11H6 (Homo sapiens, UniProt Q8NGC7); conditions: dose-response curves FIG. 6D-J
T2 construct: expressed in transfected cells
T2 sequence (Q8NGC7 1-330): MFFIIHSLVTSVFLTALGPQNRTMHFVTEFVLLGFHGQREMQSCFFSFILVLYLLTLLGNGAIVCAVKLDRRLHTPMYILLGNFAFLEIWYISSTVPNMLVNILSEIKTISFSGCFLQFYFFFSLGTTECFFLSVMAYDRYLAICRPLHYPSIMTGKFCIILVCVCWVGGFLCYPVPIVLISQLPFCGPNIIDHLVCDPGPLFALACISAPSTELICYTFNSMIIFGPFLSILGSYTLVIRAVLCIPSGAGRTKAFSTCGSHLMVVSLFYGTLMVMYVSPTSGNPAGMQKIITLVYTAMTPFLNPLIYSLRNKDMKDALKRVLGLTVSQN
Description: as §1

OR5AC2 = biological target: T3, OR5AC2 (Homo sapiens, UniProt Q9NZP5); conditions: dose-response curves FIG. 6D-J
T3 construct: expressed in transfected cells
T3 sequence (Q9NZP5 1-309): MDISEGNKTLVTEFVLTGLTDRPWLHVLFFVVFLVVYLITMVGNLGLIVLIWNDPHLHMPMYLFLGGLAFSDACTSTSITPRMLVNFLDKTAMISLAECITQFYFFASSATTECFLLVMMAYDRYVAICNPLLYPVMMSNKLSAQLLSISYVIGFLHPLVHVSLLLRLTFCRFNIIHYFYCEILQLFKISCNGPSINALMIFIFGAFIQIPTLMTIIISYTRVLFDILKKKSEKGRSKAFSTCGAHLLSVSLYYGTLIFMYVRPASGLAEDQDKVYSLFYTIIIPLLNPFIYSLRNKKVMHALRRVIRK
Description: as §1

OR52N2 = biological target: T4, OR52N2 (Homo sapiens, UniProt Q8NGI0); conditions: increasing concentrations; FIG. 6A, B
T4 construct: expressed in transfected cells
T4 sequence (Q8NGI0 1-321): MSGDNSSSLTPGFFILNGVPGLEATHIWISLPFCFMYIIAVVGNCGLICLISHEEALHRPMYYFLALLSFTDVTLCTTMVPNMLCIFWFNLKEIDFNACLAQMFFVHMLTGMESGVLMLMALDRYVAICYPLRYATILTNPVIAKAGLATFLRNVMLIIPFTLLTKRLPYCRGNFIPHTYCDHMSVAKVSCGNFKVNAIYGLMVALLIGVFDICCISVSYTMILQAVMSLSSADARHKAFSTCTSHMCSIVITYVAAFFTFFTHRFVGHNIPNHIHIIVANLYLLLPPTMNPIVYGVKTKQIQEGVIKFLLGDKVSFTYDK
Description: as §1

T1 sequence (Q8NGM1 with tags, fused parts or gaps): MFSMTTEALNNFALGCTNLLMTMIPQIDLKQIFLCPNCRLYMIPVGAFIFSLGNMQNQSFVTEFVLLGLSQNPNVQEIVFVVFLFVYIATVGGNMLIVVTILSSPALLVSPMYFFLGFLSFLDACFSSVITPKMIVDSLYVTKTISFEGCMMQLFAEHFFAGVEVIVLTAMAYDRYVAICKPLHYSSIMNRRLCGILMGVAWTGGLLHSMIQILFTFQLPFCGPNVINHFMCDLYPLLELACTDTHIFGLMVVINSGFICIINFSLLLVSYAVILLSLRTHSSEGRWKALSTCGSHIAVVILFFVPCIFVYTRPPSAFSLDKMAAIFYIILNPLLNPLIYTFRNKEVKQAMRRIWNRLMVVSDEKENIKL

| SMILES | receptor response in vitro (OR4C15) | receptor response in vitro (OR11H6) | receptor response in vitro (OR5AC2) | receptor activity (Calcium 5 dye fluorescence change) (OR52N2) |
| --- | --- | --- | --- | --- |
| c1ccc2[nH]ccc2c1 [indole] | responded | responded | responded | dose-dependent increase of receptor activity |
| Cc1c[nH]c2ccccc12 [skatole, 3-methyl indole] | responded | responded | responded | dose-dependent increase of receptor activity |
